Assay [1] deals with RAW264.7 cells. The experiment in a line: EFAD formation in activated RAW264.7 cells treated with inhibitors. It is filed as cell-based, murine.
A further assay concerns the target T1, PPARγ (Homo sapiens, UniProt P37231).
T1 sequence (P37231 1-505): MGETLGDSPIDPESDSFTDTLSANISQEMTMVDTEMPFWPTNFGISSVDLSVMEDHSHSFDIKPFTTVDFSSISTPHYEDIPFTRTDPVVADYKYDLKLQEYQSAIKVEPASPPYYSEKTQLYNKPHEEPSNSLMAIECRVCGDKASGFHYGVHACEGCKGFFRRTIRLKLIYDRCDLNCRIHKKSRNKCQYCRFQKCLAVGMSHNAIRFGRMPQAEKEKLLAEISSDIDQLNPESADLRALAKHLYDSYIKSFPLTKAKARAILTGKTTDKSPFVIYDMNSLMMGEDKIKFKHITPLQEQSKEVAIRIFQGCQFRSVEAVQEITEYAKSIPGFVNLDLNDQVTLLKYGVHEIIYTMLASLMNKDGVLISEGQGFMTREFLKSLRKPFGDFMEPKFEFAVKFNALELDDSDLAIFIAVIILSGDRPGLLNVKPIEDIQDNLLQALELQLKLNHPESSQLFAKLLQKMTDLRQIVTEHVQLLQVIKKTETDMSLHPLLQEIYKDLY
Briefly: PPARγ beta-lactamase reporter assay. It counts as cell-based. The conditions noted are these: concentrations 0.5-10,000 nM, read-out: EC50 PPARγ activation. As to the method:
(§1) FIG. 11 illustrates modulation of anti-oxidant and inflammatory responses by 17-oxoDHA and 17-oxoDPA. RAW264.7 cells were treated with increasing concentration of 17-oxoDHA and 17-oxoDPA. (a) Cells were harvested 1 h after treatment and Nrf2 levels were quantified in nuclear extracts, (b) Cells were harvested 18 h after treatment and HO—I and Nqol (upper band) levels were measured by western blot, (c, d) RAW264.7 cells were treated with increasing concentration of 17-oxoDHA and 17-oxoDP A for 6 h and Kdo2+IFNγ were added. Samples were collected at 12 h. IL-6, MCP-I and IL-IO levels were measured in the cell media by Quantikine ELISA Kit (R&D Systems) and normalized by the total protein content (c); Nitrite levels were measured in the cell media and normalized by the total protein content and iNOS and Cox-2 levels were measured in total cell lysates (d); (e) PPARγ beta-lactamase reporter assays were performed for Rosiglitazone, 17-OxoDPA, 17-OxoDHA, 15d-PGJ2, 17-hydroxyDHA, DPA, and DHA with concentrations ranging from 0.5-10,000 nM.
The observation that oxo-fatty acids, such as 15d-PGJ230, 5-oxoEPA, 6-oxoOTE, and the synthetic 4-oxoDHA31, covalently bind and activate the peroxisome proliferator-activated receptor γ (PPARγ), prompted the present inventors to test the ability of 17-oxoDPA, and 17-oxoDHA to activate PPARγ. Thus PPARγ beta-lactamase reporter assays were performed using Roziglitazone, a potent synthetic PPARγ agonist, was used in the assay as positive control.

The test system of assay [2] is RAW264.7 cells. The experiment in a line: Cytokine levels (IL-6, MCP-I, IL-10) in activated RAW264.7 cells, ELISA. It is filed as cell-based, murine. On the procedure:
as §1
To investigate whether the 17-oxo DHA and 17-oxo DPA played a role in modulating the inflammatory response generated by Kdo2 and IFNγ, the present investigators study the change in levels of cytokines, IL-6, MCP-I and IL-IO in cells exposed to increasing doses of 17-oxo DHA and 17-oxo DPA. […]

Another assay deals with Nrf2. The experiment in a line: Nrf2 nuclear accumulation and HO-1/Nqo1 expression, western blot. The conditions noted are these: RAW264.7; Nrf2 at 1 h, HO-1/Nqo1 at 18 h. It is filed as cell-based, murine. On the procedure:
as §1
As described above, compounds of the invention can react with biological thiols to form reversible covalent adducts. […]
(§2) Protein concentrations of samples were measured by BCA assay (Pierce). […] Actin (detected by Sigma A2066) was used as loading control. […]

The target of a further assay is GAPDH (Oryctolagus cuniculus, UniProt P46406). Briefly: In vitro alkylation of GAPDH, mass spectrometric analysis. It is filed as biochemical, rabbit. From the text:
FIG. 21 illustrates the mass spectrometric analysis of an in vitro reaction of GAPDHvith EFAD-2. Four residues were detected and confirmed-as being targets for EfAD-2 in treated rabbit GAPDH. The peptides were alkylated as Cys244 (a), His163 (b), Cys149 (c) and His328 (d). Upper panels show EFAD-2 modified peptides and lower panels show spectra from corresponding native peptide.
To more specifically test the binding of EFADs to nucleophilic residues in proteins, we tested whether GAPDH was alkylated by EFADs. This enzyme is a well-characterized target for electrophiles and becomes easily inactivated by nitrosylation, oxidation or nucleophilic addition.

Assay [3] relates to RAW264.7 cells. Briefly: Nitrite levels in cell media of activated RAW264.7 cells (Griess reaction). It counts as cell-based, murine. The conditions noted are these: 6 h pretreatment, then Kdo2+IFNγ, 12 h. On the procedure: as §1
For activation experiments RAW 264.7 cells were seeded, incubated overnight, and treated at approximately 80% confluence with the indicated compounds 47. […]
(§3) Total nitrite and nitrate concentration was measured in cell culture media by Griess reaction using the Nitrate/Nitrite Colorimetric Assay Kit (Cayman Chemical).

For assay [4], the system named is inducible nitric oxide synthase (iNOS). Briefly: iNOS induction and nitrite accumulation in activated RAW264.7 cells. It is filed as cell-based, murine. The conditions noted are these: RAW264.7 activated with Kdo2 and IFNγ. As to the method:
as §1
For activation experiments RAW 264.7 cells were seeded, incubated overnight, and treated at approximately 80% confluence with the indicated compounds 47. Non-activated controls were treated with vehicle alone. During activation, cells were maintained in an activation medium (SMEM) of Minimum Essential Medium Eagle (Cellgro, 17-305)+2% FBS supplemented with L-glutamine (584 mg/L), Na-pyruvate (110 mg/L) and Hepes (3.57 g/L, pH 7.4). For inhibition studies, inhibitors were added to the medium at the time of activation and MTT assays were used to confirm cell viability. Cells were harvested 20 h post activation (unless otherwise indicated) in 50 mM phosphate buffer (pH 7.4) and snap frozen in liquid N2. […]
as §2, §3

The mark [5] stands for this setting: RAW264.7 activated with Kdo2 and IFNγ, inhibitor added at activation, 20 h.

“Also recorded” adds a separate entry of the source.

GAPDH, sequence (P46406 whole entry): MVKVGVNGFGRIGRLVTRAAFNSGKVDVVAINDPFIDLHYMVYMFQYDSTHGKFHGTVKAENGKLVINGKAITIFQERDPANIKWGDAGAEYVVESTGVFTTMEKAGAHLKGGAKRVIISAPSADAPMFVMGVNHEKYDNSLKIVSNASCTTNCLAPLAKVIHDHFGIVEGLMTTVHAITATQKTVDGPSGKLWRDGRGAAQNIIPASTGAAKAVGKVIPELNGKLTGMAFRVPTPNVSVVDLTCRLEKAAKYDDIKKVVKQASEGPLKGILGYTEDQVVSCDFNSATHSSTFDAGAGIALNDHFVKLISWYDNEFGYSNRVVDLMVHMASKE

As to `CC(C)Cc1ccc(C(C)C(=O)O)cc1` (racemic) [ibuprofen], the “inhibition of EFAD production” value in the assay with RAW264.7 cells [1] (setting [5]) is reported as “more than 80%”. In addition, in the assay on RAW264.7 cells [1] (ibuprofen 100 μM, exception stated in the text), the “effect on EFAD-I formation” value is given as “no significant effect”.
As a reminder, the EC50 is the concentration giving half of the maximal effect. For the compound `CCCCCC=CC=C1C(=O)C=C[C@@H]1CC=CCCCC(=O)O` [15d-PGJ2, 15-deoxy-Δ (12,14)-prostaglandin J2, reference compound], the EC50 at PPARγ was around 25 nM.
The same measure, in the same setting: the same measure for `CC/C=C\CC(O)/C=C/C=C\C/C=C\C/C=C\CCCCCC(=O)O` (stereo not shown) [17-OH-DPA, 17-OH(7Z,10Z,13Z,15A,19Z)-docosa-7,10,13,15,19-pentanoic acid, reference compound]: above 10000 nM.
As to `CC/C=C\CC(=O)C=C/C=C\C/C=C\C/C=C\C/C=C\CCC(=O)O` [17-oxoDHA, 17-oxo-(4Z,7Z,10Z,13Z,15A,19Z)-docosa-4,7,10,13,15,19-hexanoic acid], the “IFNγ and LPS-induced cytokine production” value in the assay on RAW264.7 cells [2] is “inhibited”. In addition, the EC50 at PPARγ was around 40 nM. Besides, the “Nrf2 nuclear accumulation and expression of HO-1 and Nqo1” value with Nrf2 is on record as “promoted dose-dependent Nrf2 nuclear accumulation; also recorded: induced the anti-oxidant response”. Further, the “adduct formation with GAPDH residues” value at GAPDH is “covalently bind Cys and His residues”. In addition, the “reduction of nitrite production” value in the assay with RAW264.7 cells [3] (20 μM) was −70%. Further, in assay [4], the “iNOS induction and accumulation of nitrite in the cell media” value is given as “dose-dependent inhibition”.
For `CC/C=C\CC(=O)C=C/C=C\C/C=C\C/C=C\CCCCCC(=O)O` [17-oxoDPA, 17-oxo-(7Z,10Z,13Z,15A,19Z)-docosa-7,10,13,15,19-pentanoic acid], the “IFNγ and LPS-induced cytokine production” value with RAW264.7 cells [2] is on record as “inhibited”. In addition, the EC50 at PPARγ is around 40 nM. Further, the “Nrf2 nuclear accumulation and expression of HO-1 and Nqo1” value in the assay on Nrf2 is on record as “promoted dose-dependent Nrf2 nuclear accumulation; also recorded: induced the anti-oxidant response”. The “adduct formation with GAPDH residues” value on GAPDH was “covalently bind Cys and His residues”. For the same compound, the “reduction of nitrite production” value in the assay with RAW264.7 cells [3] (25 μM) is listed as −70%. Further, the “iNOS induction and accumulation of nitrite in the cell media” value in assay [4] is “dose-dependent inhibition”.
Consider `CCCCCC#CCC#CCC#CCC#CCCCC(=O)O` [ETYA, Eicosatetraynoic acid], for which the “effect on EFAD formation” value in the assay with RAW264.7 cells [1] (setting [5]) is given as “strongly inhibit”.
Same read-out and setting: the same measure for `COc1ccc2c(c1)c(CC(=O)O)c(C)n2C(=O)c1ccc(Cl)cc1` [Indomethacin]: “completely abolish”; for `CC(C)c1ccc2c(c1)c(SC(C)(C)C)c(CC(C)(C)C(=O)O)n2Cc1ccc(Cl)cc1` [MK886]: “no significant effect”.
Same read-out and setting: next, `CS(=O)(=O)Nc1ccc([N+](=O)[O-])cc1OC1CCCCC1` [NS-398]: “abolished”; `C=C1[C@@H](O)[C@@H]2O[C@]3(CC[C@H](/C=C/[C@@H](C)[C@@H]4CC(C)=C[C@@]5(O[C@H](C[C@@](C)(O)C(=O)O)CC[C@H]5O)O4)O3)CC[C@H]2O[C@@H]1[C@@H](O)C[C@H](C)[C@H]1O[C@@]2(CCCCO2)CC[C@H]1C` [OKA, okadaic acid]: “slight increase”.
On the same count and under the same terms, the same measure for `O=C(O)Cc1ccccc1Nc1c(Cl)cccc1Cl` [diclofenac]: “completely abolish”.

The values above are taken from US20150018417A1, “FATTY ACIDS AS ANTI-INFLAMMATORY AGENTS” (University of Pittsburgh - Of the Commonwealth System of …, priority 2012, published 2015).
